Laboratory results taken from patent US20230278972A1, “SUBSTITUTED HALOALKYL SULFONANILIDE HERBICIDES” (FMC Corporation, priority 2020, published 2023).
Where two headings read alike, the source gives them in different places.

Experiments:
rice (Oryza sativa) = test: Test B flooded paddy test, rice; details: 336 h, read-out: Plant response rating, Rice
kochia (Bassia scoparia) [1] = test: Test A preemergence, kochia; assay type: in vivo; details: Bassia scoparia, pre-emergence, 240 h, Preemergence; for pest or weed control at 125 g/ha: 125 g ai/ha; for pest or weed control at 500 g/ha: 500 g ai/ha
Procedure, shortened: (§1)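 Greenhouse pot test in a loam–sand blend; compounds delivered in a non-phytotoxic solvent carrying a surfactant, applied either as a directed spray to soil at seeding or over seedlings 2 to 10 cm high with one to two leaves.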

[2] = test system: Ryegrass, Italian (Italian ryegrass, Lolium multiflorum); test: Test A postemergence, Ryegrass, Italian; assay type: in vivo; details: Lolium multiflorum, post-emergence, 240 h, Postemergence, 0 to 100 scale (0 no effect, 100 complete control); for pest or weed control at 125 g/ha: 125 g ai/ha; for pest or weed control at 500 g/ha: 500 g ai/ha
Procedure, shortened: as §1

[3] = test system: ragweed (common ragweed, Ambrosia artemisiifolia); test: Test A preemergence, ragweed; assay type: in vivo; details: Ambrosia artemisiifolia, pre-emergence, 240 h, Preemergence; for pest or weed control at 125 g/ha: 125 g ai/ha; for pest or weed control at 500 g/ha: 500 g ai/ha
Procedure, shortened: as §1

kochia (Bassia scoparia) [4] = test: Test A postemergence, kochia; assay type: in vivo; details: Bassia scoparia, post-emergence, 240 h, Postemergence, 0 to 100 scale (0 no effect, 100 complete control); for pest or weed control at 125 g/ha: 125 g ai/ha; for pest or weed control at 500 g/ha: 500 g ai/ha
Procedure, shortened: as §1

[5] = visual injury on 0 to 100 scale (0 no effect, 100 complete control), approximately 10 days, read-out: Kochia plant response rating
[6] = 0 to 100 scale (0 no effect, 100 complete control), read-out: Plant response rating, Kochia
[7] = visual injury approx. 10 days, read-out: Plant response rating, Ryegrass, Italian
[8] = visual injury, approx. 10 days, read-out: Plant response rating, Ryegrass, Italian
[9] = visual injury on 0 to 100 scale (0 no effect, 100 complete control), approximately 10 days, read-out: Ragweed plant response rating
[10] = 0 to 100 scale (0 no effect, 100 complete control), read-out: Plant response rating, Ragweed
[11] = visual injury approx. 10 days, read-out: Plant response rating, Kochia
[12] = visual injury, approx. 10 days, read-out: Plant response rating, Kochia
[13] = visual injury vs untreated controls after approx. 10 days, read-out: Ryegrass, Italian plant response rating
[14] = visual injury vs untreated controls after approx. 10 days, read-out: Kochia plant response rating
[15] = read-out: Plant response rating, Ryegrass, Italian
[16] = read-out: Plant response rating, Kochia
[17] = visual injury, 0 to 100 scale (0 no effect, 100 complete control), approx. 10 days, read-out: Plant response rating, Kochia
[18] = visual injury, 0 to 100 scale (0 no effect, 100 complete control), approx. 10 days, read-out: Plant response rating, Ragweed

| Structure (SMILES) | plant injury at 250 g/ha (rice (Oryza sativa)) | pest or weed control at 125 g/ha (kochia (Bassia scoparia) [1]; [5]) | pest or weed control at 500 g/ha (kochia (Bassia scoparia) [1]; [6]) | pest or weed control at 125 g/ha [2, 7] | pest or weed control at 500 g/ha [2, 8] | pest or weed control at 125 g/ha [3, 9] | pest or weed control at 500 g/ha [3, 10] | pest or weed control at 125 g/ha (kochia (Bassia scoparia) [4]; [11]) | pest or weed control at 500 g/ha (kochia (Bassia scoparia) [4]; [12]) | pest or weed control at 500 g/ha [2, 13] | pest or weed control at 500 g/ha (kochia (Bassia scoparia) [4]; [14]) | pest or weed control at 125 g/ha [2, 15] | pest or weed control at 125 g/ha (kochia (Bassia scoparia) [4]; [16]) | pest or weed control at 125 g/ha (kochia (Bassia scoparia) [1]; [17]) | pest or weed control at 125 g/ha [3, 18] | pest or weed control at 500 g/ha (kochia (Bassia scoparia) [1]; [5]) | pest or weed control at 500 g/ha [3, 9] |
| --- | --- | --- | --- | --- | --- | --- | --- | --- | --- | --- | --- | --- | --- | --- | --- | --- | --- |
| Cc1cc(Cl)c(NS(=O)(=O)C(F)(F)F)cc1C(=O)N1CCOCC1 [Compound 16, N-[2-Chloro-4-methyl-5-(4-morpholinylcarbonyl)phenyl]-1,1,1-trifluoromethanesulfonamide] | 0% | 90% | 90% | 50% | 70% | 80% | 100% | 40% | 80% |  |  |  |  |  |  |  |  |
| Cc1cc(Cl)c(NS(=O)(=O)C(F)(F)F)cc1C(=O)N1CCCCC1 [Compound 18, N-[2-Chloro-4-methyl-5-(1-piperidinylcarbonyl)phenyl]-1,1,1-trifluoromethanesulfonamide] | 0% | 10% | 60% | 10% | 40% | 0% | 30% | 10% | 40% |  |  |  |  |  |  |  |  |
| CCc1cc(-c2cc(NS(=O)(=O)C(F)(F)F)c(C)cc2C)c(=O)n(C)n1 [Compound 34, N-[5-(6-Ethyl-2,3-dihydro-2-methyl-3-oxo-4-pyridazinyl)-2,4-dimethylphenyl]-1,1,1-trifluoromethanesulfonamide] | 0% | 30% | 70% | 0% | 0% | 0% | 20% | 30% | 50% |  |  |  |  |  |  |  |  |
| Cc1cc(C)c(N(COC(=O)C(C)(C)C)S(=O)(=O)C(F)(F)F)cc1C1=NO[C@@H]2CCC[C@H]12 [Compound 100, [[2,4-Dimethyl-5-[(3aR,6aR)-3a,5,6,6a-tetrahydro-4H-cyclopent[d]isoxazol-3-yl]phenyl][(trifluoromethyl)sulfonyl]amino]methyl 2,2-dimethylpropanoate] | 20% | 60% | 80% | 20% |  | 20% | 80% | 60% |  | 40% | 90% |  |  |  |  |  |  |
| Cc1cc(C)c(C2=NO[C@@H]3CCC[C@H]23)cc1NS(=O)(=O)C(F)(F)F [Compound 103, N-[2,4-Dimethyl-5-[(3aR,6aR)-3a,5,6,6a-tetrahydro-4H-cyclopent[d]isoxazol-3-yl]phenyl]-1,1,1-trifluoromethanesulfonamide] | 25% | 80% | 90% | 90% |  | 70% | 90% | 70% |  | 90% | 80% |  |  |  |  |  |  |
| Cc1cc(C)c(C2=NOC3CCOCC23)cc1NS(=O)(=O)C(F)(F)F (stereo not drawn) [Compound 120, N-[2,4-Dimethyl-5-(3a,6,7,7a-tetrahydro-4H-pyrano[3,4-d]isoxazol-3-yl)phenyl]-1,1,1-trifluoromethanesulfonamide] | 0% | 90% | 100% | 90% |  | 90% | 100% | 70% |  | 80% | 90% |  |  |  |  |  |  |
| Cc1cc(C)c(C2=NOC3COCCC23)cc1NS(=O)(=O)C(F)(F)F (stereo not drawn) [Compound 121, N-[2,4-Dimethyl-5-(3a,4,7,7a-tetrahydro-5H-pyrano[4,3-d]isoxazol-3-yl)phenyl]-1,1,1-trifluoromethanesulfonamide] | 20% | 90% | 90% | 90% |  | 80% | 100% | 50% |  | 80% | 80% |  |  |  |  |  |  |
| Cc1c(NS(=O)(=O)C(F)(F)F)cc(C(=O)N(C)C)c(C)c1F [Compound 128, 3-Fluoro-N,N,2,4-tetramethyl-5-[[(trifluoromethyl)sulfonyl]amino]benzamide] | 0% | 80% | 80% | 80% |  | 90% | 90% | 30% |  | 100% | 70% |  |  |  |  |  |  |
| Cc1cc(C)c(N(COC(=O)C(C)(C)C)S(=O)(=O)C(F)(F)F)cc1C1=NOC2(CCCC2)C1 [Compound 140, [[2,4-Dimethyl-5-(1-oxa-2-azaspiro[4.4]non-2-en-3-yl)phenyl][(trifluoromethyl)sulfonyl]amino]methyl 2,2-dimethylpropanoate] | 0% | 0% | 70% |  |  | 30% | 60% | 10% |  | 20% | 60% | 0% |  |  |  |  |  |
| Cc1cc(C)c(N(COC(=O)C(C)(C)C)S(=O)(=O)C(F)(F)F)cc1C1=NOC2(CCCCC2)C1 [Compound 159, [[2,4-Dimethyl-5-(1-oxa-2-azaspiro[4.5]dec-2-en-3-yl)phenyl][(trifluoromethyl)sulfonyl]amino]methyl 2,2-dimethylpropanoate] | 0% | 40% | 70% |  |  | 80% | 80% |  |  | 0% | 40% | 0% | 20% |  |  |  |  |
| Cc1c(NS(=O)(=O)C(F)(F)F)cc(C(=O)N2CCOCC2)c(C)c1F [Compound 190, 1,1,1-Trifluoro-N-[3-fluoro-2,4-dimethyl-5-(4-morpholinylcarbonyl)phenyl]methanesulfonamide] | 0% |  | 100% |  |  |  | 90% |  |  | 90% | 70% | 80% | 30% | 90% | 70% |  |  |
| Cc1cc(C)c(C2=NOC3(CCCCC3)C2)cc1NS(=O)(=O)C(F)(F)F [Compound 197, N-[2,4-Dimethyl-5-(1-oxa-2-azaspiro[4.5]dec-2-en-3-yl)phenyl]-1,1,1-trifluoromethanesulfonamide] | 0% |  | 90% |  |  |  | 90% |  |  | 60% | 80% | 50% | 50% | 90% | 80% |  |  |
| Cc1cc(C)c(C2=NOC3(CCCC3)C2)cc1NS(=O)(=O)C(F)(F)F [Compound 207, N-[2,4-Dimethyl-5-(1-oxa-2-azaspiro[4.4]non-2-en-3-yl)phenyl]-1,1,1-trifluoromethanesulfonamide] | 0% |  | 90% |  |  |  | 70% |  |  | 90% | 60% | 40% | 20% | 90% | 20% |  |  |
| Cc1cc(Cl)c(NS(=O)(=O)C(F)(F)F)cc1C(=O)N1CCC(F)(F)CC1 [Compound 229, N-[2-Chloro-5-[(4,4-difluoro-1-piperidinyl)carbonyl]-4-methylphenyl]-1,1,1-trifluoromethanesulfonamide] | 10% |  |  |  |  |  |  |  |  | 70% | 90% | 30% | 60% | 80% | 90% | 100% | 100% |
